In patent US20170094972A1, “Compounds and Compositions Having Knock-Down Activity Against Insect Pests” (priority 2015, published 2017):
Read-outs that look alike come from different tables or passages of the source.

What was measured:
Type in all cases: in vivo
female mosquitoes = assay: Tunnel study based on WHOPES tunnel tests with Hemotek membrane feeding device; details: for mortality at 10 mg/m2: 24 h
Method: Based on the “WHOPES tunnel tests” (described at http://apps.who.int/iris/bitstream/10665/80270/1/9789241505277_eng.pdf), except that live guniea pig baits were replaced with a Hemotek membrane feeding device, filled with blood and kept constant at 37° C. to mimic a human host. All tests were done under standardised laboratory controlled conditions (27° C.+2° C. under subdued light). The tunnel apparatus was a 60×30×30 cm glass case open at each end and the floor was lined with wet blue roll in order to maintain humidity. A 30×30×30 cm cage, covered in untreated netting, was placed at the release end. The test nets were cut to 25×25 cm squares and fitted into cardboard frames that allow a 20×20 cm area to be exposed. Nine holes, 1 cm in diameter, were made in the netting in the pattern specified in the WHOPES test. The frames were then fitted into the tunnel one third of the way down its length. A Hemotek device, filled with blood and kept constant at 37° C. to mimic a human host, was placed in the smaller area of the glass tunnel behind the test netting, and the end of the tunnel closed with a netting screen. A human sat at the Hemotek end of the tunnels for the duration of the test. At the start of the test (13.30-14.00), 100 female mosquitoes (non-blood fed, aged 5-8 days) were introduced into the cage. Mosquitoes are free to fly in the tunnel but have to make contact with the piece of netting and locate the holes in it before passing through to reach the bait. After 7 hours (20.30-21.00) the mosquitoes were counted in each section of the tunnel. The number of mosquitoes knocked down and blood fed were recorded. Blood-feeding inhibition was assessed by comparing the proportion of blood-fed females (alive or dead) in treated and control tests. Four tunnels were run simultaneously each day, with one control containing untreated netting included with all runs. Three replicates were carried out per treatment.
(§1) In case of multiple tests, the mean value is reported.

Anopheles stephensi [1] = assay: 6 well plate test, knockdown after 1 hour and mortality after 24 and 48 hours; parameters: KD: unit not given here; details: for KD: after 1 hour
Method: The individual wells of six (6) well tissue culture plates were treated with […] of an ethanol solution containing a test compound at a defined concentration. Once the deposits were dry, ten non-blood fed adult female Anopheles stephensi (between two to five day old) were added to each well, and sustained with a 10% sucrose solution in a cotton wool plug. Assessment of the knockdown after 1 hour (Tables B1-B10), and mortality after 24 and 48 hours (Tables B1-B4) was carried out.
as §1

Anopheles stephensi [2] = assay: 12 well plate knockdown test; details: 1 h, read-out: Anopheles stephensi 1 hour % KD
Method: (§2) The individual wells of a twelve (12) well tissue culture plates were treated with 100 μl of an ethanol solution containing a test compound at a defined concentration. Once the deposits were dry, five non-blood fed adult female Aedes aegypti or Anopheles stephensi (between two to five day old) were added to each well, and sustained with a 10% sucrose solution in a cotton wool plug. Assessment of the knockdown after 1 hour was carried out. Where multiple replicates of a treatment have been undertaken, the mean of those replicates is reported.

Aedes aegypti = assay: 12 well plate knockdown test; details: 1 h, read-out: Aedes aegypti 1 hour % KD
Method: as §2

adult female mosquitoes = assay: Bottle assay based on CDC bottle assay
Method: Based on the “CDC bottle assay” (described at http://www.cdc.gov/malaria/resources/pdf/fsp/ir_manual/ir_cdc_bioassay_en.pdf) 1 ml of ethanol containing a test compound at a defined concentration was added to a 250 ml glass bottle and the bottles were placed on a rolling table to coat the inner surfaces as the solvent evaporated. Once dry, twenty five non-blood fed adult female mosquitoes of the appropriate species and strains (each three day old) were aspirated from the stock culture and gently blown into the exposure bottles. The lid of the bottle was replaced and the bottle placed upright out of direct sun light under standard culture conditions, nominally 28° C. and 60-80% relative humidity.
A stopwatch was started, and the assessment of the knock-down were made after 15 mins and 60 minutes. A mosquito was said to be knocked down if it was unable to stand, following the CDC definition. The bottles were replaced in an upright position when not being assessed.
After one hour the mosquitoes were carefully removed from the bottle with an aspirator and placed in a recovery cup. The mosquitoes were supplied with a 10% sucrose solution on a cotton wool bung, and stored under culture conditions. Assessments of the mortality were made after 24 hours and 48 hours (B15).
Each treatment was replicated a minimum of four times, with the mean knockdown or mortality recorded. In each study, a set of bottles was infested with a known insecticide susceptible strain of mosquitoes from the same genera as the resistant strains.

[3] = Table B11, Rate 10 mg/m2, 24 hours, read-out: % Mortality
[4] = Table B1, Comp. (I.3) alone 0.1 ppm
[5] = Table B2, Comp. (I.3) alone 0.5 ppm
[6] = Table B3, Comp. (I.3) alone 0.5 ppm
[7] = Table B4, Comp. (I.3) alone 0.5 ppm

NC(=O)c1cnccc1C(F)(F)F [I.3]
mortality at 10 mg/m2 (female mosquitoes; [3]): 68%
mortality at 10 mg/m2 (female mosquitoes; Table B13, 10 mg/m2, read-out: % 24 hour mortality): 72.2%
mortality at 10 mg/m2 (female mosquitoes; Table B14, 10 mg/m2, read-out: % 24 hour mortality): 68%
% Blood fed (female mosquitoes; Table B11, Rate 10 mg/m2): 3%
% 1 hour KD (female mosquitoes; Table B12, 10 mg/m2): 41.24%
% Blood fed (female mosquitoes; Table B12, 10 mg/m2): 3.09%
% Through net (female mosquitoes; Table B12, 10 mg/m2): 9.28%
% Blood fed (female mosquitoes; Table B13, 10 mg/m2): 18.56%
% Through net (female mosquitoes; Table B13, 10 mg/m2): 22.68%
% Blood fed (female mosquitoes; Table B14, 10 mg/m2): 2.9%
24 hr mort (Anopheles stephensi [1]; [4]): 0.0
48 hr mort (Anopheles stephensi [1]; [4]): 0.0
KD (Anopheles stephensi [1]; [4]): 23.3
24 hr mort (Anopheles stephensi [1]; [5]): 7.0
48 hr mort (Anopheles stephensi [1]; [5]): 10.0
KD (Anopheles stephensi [1]; [5]): 60.0
24 hr mort (Anopheles stephensi [1]; [6]): 0.0
48 hr mort (Anopheles stephensi [1]; [6]): 0.0
KD (Anopheles stephensi [1]; [6]): 73.0
24 hr mort (Anopheles stephensi [1]; [7]): 2.5
48 hr mort (Anopheles stephensi [1]; [7]): 2.5
KD (Anopheles stephensi [1]; [7]): 17.5
knockdown after 1 hour (Anopheles stephensi [1]; Table B10, Compound (I.3) alone 0.5 ppm): 0.0
pest or weed control at 0.2 ppm (Anopheles stephensi [2]; Rate 0.2 PPM): 20%
pest or weed control at 2 ppm (Anopheles stephensi [2]; Rate 2 PPM): 20%
pest or weed control at 20 ppm (Anopheles stephensi [2]; Rate 20 PPM): 100%
pest or weed control at 200 ppm (Anopheles stephensi [2]; Rate 200 PPM): 100%
pest or weed control at 0.2 ppm (Aedes aegypti; Rate 0.2 PPM): 100%
pest or weed control at 2 ppm (Aedes aegypti; Rate 2 PPM): 100%
pest or weed control at 20 ppm (Aedes aegypti; Rate 20 PPM): 100%
pest or weed control at 200 ppm (Aedes aegypti; Rate 200 PPM): 100%
24 hour % mort (adult female mosquitoes; Table B15, rates not given): 0%
48 hour % mort (adult female mosquitoes; Table B15, rates not given): 0%
% 1 hour KD (adult female mosquitoes; Table B15, rates not given): 86.66%
% 1 hour KD (adult female mosquitoes; Table B16, 10ug/bottle): 100%
% 24 hour mortality (adult female mosquitoes; Table B16, 10ug/bottle): 0%

CC1(C)C(C=C(Cl)Cl)C1C(=O)OCc1cccc(Oc2ccccc2)c1 (stereo not shown) [Permethrin]
mortality at 10 mg/m2 (female mosquitoes; [3]): 24%
% Blood fed (female mosquitoes; Table B11, Rate 10 mg/m2): 31%
24 hr mort (Anopheles stephensi [1]; Table B1, 0.0625 ppm alone): 0.0
48 hr mort (Anopheles stephensi [1]; Table B1, 0.0625 ppm alone): 0.0
KD (Anopheles stephensi [1]; Table B1, 0.0625 ppm alone): 0.0
24 hr mort (Anopheles stephensi [1]; Table B1, 0.125 ppm alone): 3.3
48 hr mort (Anopheles stephensi [1]; Table B1, 0.125 ppm alone): 0.0
KD (Anopheles stephensi [1]; Table B1, 0.125 ppm alone): 0.0
24 hr mort (Anopheles stephensi [1]; Table B1, 0.25 ppm alone): 16.7
48 hr mort (Anopheles stephensi [1]; Table B1, 0.25 ppm alone): 20.0
KD (Anopheles stephensi [1]; Table B1, 0.25 ppm alone): 0.0
24 hr mort (Anopheles stephensi [1]; Table B1, 0.5 ppm alone): 23.3
48 hr mort (Anopheles stephensi [1]; Table B1, 0.5 ppm alone): 30.0
KD (Anopheles stephensi [1]; Table B1, 0.5 ppm alone): 0.0
24 hr mort (Anopheles stephensi [1]; Table B1, 1 ppm alone): 40.0
48 hr mort (Anopheles stephensi [1]; Table B1, 1 ppm alone): 46.7
KD (Anopheles stephensi [1]; Table B1, 1 ppm alone): 10.0
24 hr mort (Anopheles stephensi [1]; Table B1, 2 ppm alone): 66.7
48 hr mort (Anopheles stephensi [1]; Table B1, 2 ppm alone): 80.0
KD (Anopheles stephensi [1]; Table B1, 2 ppm alone): 13.3
24 hr mort (Anopheles stephensi [1]; Table B2, 0.0625 ppm alone): 0.0
48 hr mort (Anopheles stephensi [1]; Table B2, 0.0625 ppm alone): 0.0
KD (Anopheles stephensi [1]; Table B2, 0.0625 ppm alone): 0.0
24 hr mort (Anopheles stephensi [1]; Table B2, 0.125 ppm alone): 0.0
48 hr mort (Anopheles stephensi [1]; Table B2, 0.125 ppm alone): 0.0
KD (Anopheles stephensi [1]; Table B2, 0.125 ppm alone): 0.0
24 hr mort (Anopheles stephensi [1]; Table B2, 0.25 ppm alone): 10.0
48 hr mort (Anopheles stephensi [1]; Table B2, 0.25 ppm alone): 10.0
KD (Anopheles stephensi [1]; Table B2, 0.25 ppm alone): 0.0
24 hr mort (Anopheles stephensi [1]; Table B2, 0.5 ppm alone): 30.0
48 hr mort (Anopheles stephensi [1]; Table B2, 0.5 ppm alone): 50.0
KD (Anopheles stephensi [1]; Table B2, 0.5 ppm alone): 0.0
24 hr mort (Anopheles stephensi [1]; Table B2, 1 ppm alone): 40.0
48 hr mort (Anopheles stephensi [1]; Table B2, 1 ppm alone): 70.0
KD (Anopheles stephensi [1]; Table B2, 1 ppm alone): 0.0
24 hr mort (Anopheles stephensi [1]; Table B2, 2 ppm alone): 80.0
48 hr mort (Anopheles stephensi [1]; Table B2, 2 ppm alone): 80.0
KD (Anopheles stephensi [1]; Table B2, 2 ppm alone): 0.0
24 hour % mort (adult female mosquitoes; Table B15, rates not given): 0%
48 hour % mort (adult female mosquitoes; Table B15, rates not given): 0%
% 1 hour KD (adult female mosquitoes; Table B15, rates not given): 100%
% 1 hour KD (adult female mosquitoes; Table B16, 1ug/bottle): 100%
% 24 hour mortality (adult female mosquitoes; Table B16, 1ug/bottle): 0%
